Test results from ChEMBL document CHEMBL5724914, “Linking interpersonal differences in gut microbiota composition and drug biotransformation activity” (2024).

How the values were obtained:
[1] = human gut metagenome, 24 h, 2 µM
[2] = The drug is tested on Z-026 corresponding to metagenome with ENA study accession number: PRJEB37062 and ENA sample accession number: ERS12561825 for biotransformation under anaerobic condition. The drug concentrations were measured over 9 timepoints collected between 0 and 24 hours of incubation by liquid-chromatography-coupled mass spectrometry (LC–MS); details: 2 µM
[3] = The drug is tested on Z-029 corresponding to rat gut metagenome with ENA study accession number: PRJEB37062 and ENA sample accession number: ERS12561828 for biotransformation under anaerobic condition. The drug concentrations were measured over 9 timepoints collected between 0 and 24 hours of incubation by liquid-chromatography-coupled mass spectrometry (LC–MS); details: 2 µM
[4] = human gut metagenome, 24 h, 2 µM; remark: listed apart in the source
[5] = The drug is tested on Z-014 corresponding to rat gut metagenome with ENA study accession number: PRJEB37062 and ENA sample accession number: ERS12561814 for biotransformation under anaerobic condition. The drug concentrations were measured over 9 timepoints collected between 0 and 24 hours of incubation by liquid-chromatography-coupled mass spectrometry (LC–MS); details: 2 µM
[6] = human gut metagenome, 24 h, 2 µM; remark: listed apart in the source
[7] = The drug is tested on WLS-007 corresponding to human gut metagenome with ENA study accession number: PRJEB37062 and ENA sample accession number: ERS12561742 for biotransformation under anaerobic condition. The drug concentrations were measured over 9 timepoints collected between 0 and 24 hours of incubation by liquid-chromatography-coupled mass spectrometry (LC–MS); details: 2 µM
[8] = human gut metagenome, 24 h, 2 µM; remark: listed apart in the source
[9] = human gut metagenome, 24 h, 2 µM; remark: listed apart in the source
[10] = human gut metagenome, 24 h, 2 µM; remark: listed apart in the source
[11] = The drug is tested on Z-008 corresponding to metagenome with ENA study accession number: PRJEB37062 and ENA sample accession number: ERS12561808 for biotransformation under anaerobic condition. The drug concentrations were measured over 9 timepoints collected between 0 and 24 hours of incubation by liquid-chromatography-coupled mass spectrometry (LC–MS); details: 2 µM
[12] = human gut metagenome, 24 h, 2 µM; remark: listed apart in the source
[13] = The drug is tested on WLS-010 corresponding to human gut metagenome with ENA study accession number: PRJEB37062 and ENA sample accession number: ERS12561743 for biotransformation under anaerobic condition. The drug concentrations were measured over 9 timepoints collected between 0 and 24 hours of incubation by liquid-chromatography-coupled mass spectrometry (LC–MS); details: 2 µM
[14] = The drug is tested on Z-001 corresponding to mouse gut metagenome with ENA study accession number: PRJEB37062 and ENA sample accession number: ERS12561801 for biotransformation under anaerobic condition. The drug concentrations were measured over 9 timepoints collected between 0 and 24 hours of incubation by liquid-chromatography-coupled mass spectrometry (LC–MS); details: 2 µM
[15] = The drug is tested on WLS-310 corresponding to human gut metagenome with ENA study accession number: PRJEB37062 and ENA sample accession number: ERS12561785 for biotransformation under anaerobic condition. The drug concentrations were measured over 9 timepoints collected between 0 and 24 hours of incubation by liquid-chromatography-coupled mass spectrometry (LC–MS); details: 2 µM
[16] = The drug is tested on Z-028 corresponding to mouse gut metagenome with ENA study accession number: PRJEB37062 and ENA sample accession number: ERS12561827 for biotransformation under anaerobic condition. The drug concentrations were measured over 9 timepoints collected between 0 and 24 hours of incubation by liquid-chromatography-coupled mass spectrometry (LC–MS); details: 2 µM
[17] = The drug is tested on Z-017 corresponding to mouse gut metagenome with ENA study accession number: PRJEB37062 and ENA sample accession number: ERS12561816 for biotransformation under anaerobic condition. The drug concentrations were measured over 9 timepoints collected between 0 and 24 hours of incubation by liquid-chromatography-coupled mass spectrometry (LC–MS); details: 2 µM
[18] = human gut metagenome, 24 h, 2 µM; remark: listed apart in the source
[19] = The drug is tested on Z-019 corresponding to rat gut metagenome with ENA study accession number: PRJEB37062 and ENA sample accession number: ERS12561818 for biotransformation under anaerobic condition. The drug concentrations were measured over 9 timepoints collected between 0 and 24 hours of incubation by liquid-chromatography-coupled mass spectrometry (LC–MS); details: 2 µM
[20] = The drug is tested on Z-016 corresponding to mouse gut metagenome with ENA study accession number: PRJEB37062 and ENA sample accession number: ERS12561815 for biotransformation under anaerobic condition. The drug concentrations were measured over 9 timepoints collected between 0 and 24 hours of incubation by liquid-chromatography-coupled mass spectrometry (LC–MS); details: 2 µM
Note: call rule not given here.

| Compound | Bacterial Biotransformation [1] | Bacterial Biotransformation [2] | Bacterial Biotransformation [3] | Bacterial Biotransformation [4] | Bacterial Biotransformation [5] | Bacterial Biotransformation [6] | Bacterial Biotransformation [7] | Bacterial Biotransformation [8] | Bacterial Biotransformation [9] | Bacterial Biotransformation [10] | Bacterial Biotransformation [11] | Bacterial Biotransformation [12] | Bacterial Biotransformation [13] | Bacterial Biotransformation [14] | Bacterial Biotransformation [15] | Bacterial Biotransformation [16] | Bacterial Biotransformation [17] | Bacterial Biotransformation [18] | Bacterial Biotransformation [19] | Bacterial Biotransformation [20] |
| --- | --- | --- | --- | --- | --- | --- | --- | --- | --- | --- | --- | --- | --- | --- | --- | --- | --- | --- | --- | --- |
| CCOC(=O)[C@H](CCc1ccccc1)N[C@@H](C)C(=O)N1[C@H](C(=O)O)C[C@@H]2CCC[C@@H]21 | Compound NOT metabolized | Compound NOT metabolized | Compound NOT metabolized | Compound metabolized | Compound NOT metabolized | Compound metabolized | Compound metabolized | Compound metabolized | Compound metabolized | Compound metabolized | Compound NOT metabolized | Compound NOT metabolized | Compound metabolized | Compound NOT metabolized | Compound metabolized | Compound NOT metabolized | Compound NOT metabolized | Compound metabolized | Compound NOT metabolized | Compound metabolized |
| CCN(CC)CCNC(C(=O)OCCC(C)C)c1ccccc1.Cl.Cl (stereo not drawn) | Compound NOT metabolized | Compound NOT metabolized | Compound NOT metabolized | Compound NOT metabolized | Compound NOT metabolized | Compound metabolized | Compound metabolized | Compound NOT metabolized | Compound metabolized | Compound metabolized | Compound NOT metabolized | Compound NOT metabolized | Compound metabolized | Compound metabolized | Compound metabolized | Compound NOT metabolized | Compound NOT metabolized | Compound metabolized | Compound NOT metabolized | Compound NOT metabolized |
| CCCC(=O)Nc1ccc(OCC(O)CNC(C)C)c(C(C)=O)c1 (stereo not drawn) [ACEBUTOLOL] | Compound NOT metabolized | Compound NOT metabolized | Compound NOT metabolized | Compound metabolized | Compound NOT metabolized | Compound NOT metabolized | Compound NOT metabolized | Compound metabolized | Compound metabolized | Compound metabolized | Compound NOT metabolized | Compound NOT metabolized | Compound NOT metabolized | Compound NOT metabolized | Compound metabolized | Compound NOT metabolized | Compound NOT metabolized | Compound NOT metabolized | Compound NOT metabolized | Compound NOT metabolized |

The next lines start with the values.

| Bacterial Biotransformation [1] | Bacterial Biotransformation [2] | Bacterial Biotransformation [3] | Bacterial Biotransformation [4] | Bacterial Biotransformation [5] | Bacterial Biotransformation [6] | Bacterial Biotransformation [7] | Bacterial Biotransformation [8] | Bacterial Biotransformation [9] | Bacterial Biotransformation [10] | Bacterial Biotransformation [11] | Bacterial Biotransformation [12] | Bacterial Biotransformation [13] | Bacterial Biotransformation [14] | Bacterial Biotransformation [15] | Bacterial Biotransformation [16] | Bacterial Biotransformation [17] | Bacterial Biotransformation [18] | Bacterial Biotransformation [19] | Bacterial Biotransformation [20] | Compound |
| --- | --- | --- | --- | --- | --- | --- | --- | --- | --- | --- | --- | --- | --- | --- | --- | --- | --- | --- | --- | --- |
| Compound NOT metabolized | Compound metabolized | Compound NOT metabolized | Compound NOT metabolized | Compound NOT metabolized | Compound metabolized | Compound NOT metabolized | Compound metabolized | Compound NOT metabolized | Compound metabolized | Compound NOT metabolized | Compound NOT metabolized | Compound NOT metabolized | Compound NOT metabolized | Compound NOT metabolized | Compound NOT metabolized | Compound NOT metabolized | Compound NOT metabolized | Compound NOT metabolized | Compound NOT metabolized | C=CCc1ccccc1OCC(O)CNC(C)C (stereo not drawn) [ALPRENOLOL] |
| Compound NOT metabolized | Compound metabolized | Compound metabolized | Compound metabolized | Compound NOT metabolized | Compound metabolized | Compound metabolized | Compound metabolized | Compound metabolized | Compound metabolized | Compound metabolized | Compound NOT metabolized | Compound metabolized | Compound metabolized | Compound metabolized | Compound metabolized | Compound metabolized | Compound metabolized | Compound NOT metabolized | Compound metabolized | CCOC(=O)[C@H](CCc1ccccc1)N[C@H]1CCc2ccccc2N(CC(=O)O)C1=O [BENAZEPRIL] |
|  | Compound NOT metabolized | Compound NOT metabolized | Compound NOT metabolized | Compound NOT metabolized | Compound NOT metabolized | Compound NOT metabolized | Compound NOT metabolized | Compound NOT metabolized | Compound NOT metabolized | Compound NOT metabolized |  | Compound NOT metabolized | Compound NOT metabolized | Compound NOT metabolized | Compound NOT metabolized | Compound NOT metabolized | Compound NOT metabolized | Compound NOT metabolized | Compound NOT metabolized | CN(C)CCc1c[nH]c2ccc(Cn3cncn3)cc12.O=C(O)c1ccccc1 [RIZATRIPTAN BENZOATE] |
